45 compounds from patent publication US8475804B2 (priority 2009, dated 2013) can be followed below.

The test system of test [1] is Ebola virus. Kind of test: microbe, parasite or virus in culture. It is filed as cell-based, Ebolavirus (EBOV).
The test system of test [2] is Ebola virus. Nature of the test: microbe, parasite or virus in culture. Details: Max Effect HepG2: unit not given here. The following applies: for Emax: HepG2, read-out: Max Effect HepG2. The class given is cell-based, Ebolavirus (EBOV).
[3] abbreviates: Zaire ebolavirus, Vero, read-out: Max Effect.
[4] abbreviates: Zaire ebolavirus, Vero, read-out: Max Effect Vero.
[5] abbreviates: Zaire ebolavirus, Vero, read-out: IC50 (μM) Vero.
[6] abbreviates: Zaire ebolavirus, HepG2, read-out: IC50 (μM) HepG2.

Where a name gives a salt, the structure may show the parent alone. Read-outs that look alike come from different tables or passages of the source. Some results are limits rather than exact numbers.

In the case of `Cl.Cl.OCCN1CCN(CCC=C2c3ccccc3Sc3ccc(C(F)(F)F)cc32)CC1` (mixture of isomers) [Flupentixol Dihydrochloride], in test [1], the “Max Effect” value is on record as 0.660 and the “Max Effect Vero” value was determined as 0.959. In test [2], the “Max Effect HepG2” value is 0.744.
For `O=C1CCc2ccc(OCCCCN3CCN(c4cccc(Cl)c4Cl)CC3)cc2N1` [Aripiprazole], the Emax stood at 80.7% in test [1] (setting [3]), 53% in test [1] (setting [4]) and 94.7% in test [2] (Zaire ebolavirus).
For `COc1ccc(CCN2CCC(Nc3nc4ccccc4n3Cc3ccc(F)cc3)CC2)cc1` [Astemizole], in that order: 83.5%, 96.5% and 91.4%.
As for `O=C1C(O)=C([C@H]2CC[C@H](c3ccc(Cl)cc3)CC2)C(=O)c2ccccc21` [Atovaquone], the IC50 is below 1 µM in test [1] (Zaire ebolavirus, Vero) and 0.44 µM in test [1] (setting [5]). The Emax came to 90% in test [1] (setting [3]), 73.9% in test [1] (setting [4]) and 23.1% in test [2] (Zaire ebolavirus).
`Nc1ncn([C@@H]2O[C@H](CO)[C@@H](O)[C@H]2O)c(=O)n1` [Azacitidine]: the IC50 was 5 µM in test [1] (Zaire ebolavirus, Vero); 8.9 µM in test [1] (setting [5]); 10 µM in test [2] (setting [6]). Further, the results for the Emax in test [1] (setting [3]), in test [1] (setting [4]) and in test [2] (Zaire ebolavirus) were 59.5%, 74.6% and 89.9%, respectively.
As for `CN1[C@@H]2CC[C@H]1C[C@@H](OC(c1ccccc1)c1ccccc1)C2` [Benztropine Mesylate], the results for the Emax in test [1] (setting [3]), in test [1] (setting [4]) and in test [2] (Zaire ebolavirus) were 63.3%, 89.9% and 94.3%, respectively.
As to `CC(C)COCC(CN(Cc1ccccc1)c1ccccc1)N1CCCC1` (centres unmarked) [Bepridil Hydrochloride Monohydrate], the IC50 in test [1] (Zaire ebolavirus, Vero) amounted to 3.1 µM; in test [1] (setting [5]), 5.1 µM; in test [2] (setting [6]) it was 3.2 µM. Also, the Emax in test [1] (setting [3]) was 72%; in test [1] (setting [4]) it was 97%; in test [2] (Zaire ebolavirus), 91.2%.
Take `CCN(CC)CCOc1ccc(/C(=C(\Cl)c2ccccc2)c2ccccc2)cc1` [Clomiphene Citrate]: the Emax in test [1] (setting [3]) was 91.2%; in test [1] (setting [4]), 96.4%; in test [2] (Zaire ebolavirus) it was 93.4%.
For the compound `CN(C)CCCN1c2ccccc2CCc2ccc(Cl)cc21` [Clomipramine Hydrochloride], the Emax in test [1] (setting [3]) came to 58.5%; in test [1] (setting [4]), 96.1%; in test [2] (Zaire ebolavirus), 89.7%.
For `Cc1nc(Nc2ncc(C(=O)Nc3c(C)cccc3Cl)s2)cc(N2CCN(CCO)CC2)n1` [Dasatinib], the IC50 in test [1] (setting [5]) came to 16 µM; in test [2] (setting [6]), 4.2 µM. Also, the Emax stood at 42.8% in test [1] (setting [3]), 64.2% in test [1] (setting [4]) and 94.1% in test [2] (Zaire ebolavirus).
As for `O=C1Nc2ccc(Cl)cc2[C@@](C#CC2CC2)(C(F)(F)F)O1` [Efavirenz], the IC50 in test [1] (Zaire ebolavirus, Vero) was found to be 7.8 µM; in test [1] (setting [5]) it was 10 µM; in test [2] (setting [6]), 14 µM. Further, the Emax in test [1] (setting [3]) was 51.6%; in test [1] (setting [4]), 63.9%; in test [2] (Zaire ebolavirus), 86%.
In the case of `OCCN1CCN(CC/C=C2/c3ccccc3Sc3ccc(C(F)(F)F)cc32)CC1` [Flupentixol Dihydrochloride], the IC50 in test [1] (read-out: IC50) came out at 3.8 µM; in test [1] (read-out: IC50 (μM) Vero), 5.7 µM; in test [2] (read-out: IC50 (μM) HepG2), 1.6 µM.
In the case of `OCCN1CCN(CCCN2c3ccccc3Sc3ccc(C(F)(F)F)cc32)CC1` [Fluphenazine Hydrochloride], the figures for the Emax in test [1] (setting [3]), in test [1] (setting [4]) and in test [2] (Zaire ebolavirus) were 98.8%, 96.8% and 92%, respectively.
With `CCN(CC)CCNc1ccc(CO)c2sc3ccccc3c(=O)c12` [Hycanthone], the IC50 in test [1] (Zaire ebolavirus, Vero) amounted to 10.4 µM; in test [1] (setting [5]), 11 µM; in test [2] (setting [6]), 6 µM. Moreover, the Emax in test [1] (setting [3]) is 59.7%; in test [1] (setting [4]), 96.8%; in test [2] (Zaire ebolavirus), 96.2%.
Regarding `CO[C@H]1C[C@H](O[C@H]2CC[C@]3(C=O)[C@H]4CC[C@]5(C)[C@@H](C6=CC(=O)OC6)CC[C@]5(O)[C@@H]4CC[C@]3(O)C2)O[C@H](C)[C@H]1O` [K-Strophanthin], the IC50 in test [1] (Zaire ebolavirus, Vero) was below 0.5 µM; in test [1] (setting [5]), 0.035 µM; in test [2] (setting [6]) it was 0.021 µM. The Emax in test [1] (setting [3]) was found to be 90%; in test [1] (setting [4]), 74.2%; in test [2] (Zaire ebolavirus), 86.7%.
For `COc1ccc(CN2CCN(C(c3ccc(F)cc3)c3ccc(F)cc3)CC2)c(OC)c1OC` [Lomerizine Dihydrochloride], the IC50 in test [1] (Zaire ebolavirus, Vero) came to 10.1 µM; in test [1] (setting [5]) it was 11 µM; in test [2] (setting [6]) it was 2.1 µM. Moreover, the Emax in test [1] (setting [3]) stood at 66.5%; in test [1] (setting [4]), 89.9%; in test [2] (Zaire ebolavirus) it was 91.8%.
Consider `CNCCCC12CCC(c3ccccc31)c1ccccc12` [Maprotiline Hydrochloride], for which the results for the Emax in test [1] (setting [3]), in test [1] (setting [4]) and in test [2] (Zaire ebolavirus) were 79.5%, 98.6% and 92.5%, respectively.
`COc1c(C)c2c(c(O)c1C/C=C(\C)CCC(=O)OCCN1CCOCC1)C(=O)OC2` [Mycophenolate Mofetil]: the IC50 in test [1] (Zaire ebolavirus, Vero) is below 1 µM; in test [2] (setting [6]), 0.29 µM. Further, the Emax in test [1] (setting [3]) came out at 90%; in test [1] (setting [4]), 43.8%; in test [2] (Zaire ebolavirus) it was 88.6%.
As for `Fc1ccc([C@@H]2CCNC[C@H]2COc2ccc3c(c2)OCO3)cc1` [Paroxetine Hydrochloride Hemihydrate], the IC50 came out at 9.3 µM in test [1] (Zaire ebolavirus, Vero); 7.4 µM in test [1] (setting [5]); 1.4 µM in test [2] (setting [6]). In addition, the figures for the Emax in test [1] (setting [3]), in test [1] (setting [4]) and in test [2] (Zaire ebolavirus) were 82%, 96% and 92%, respectively.
As for `O=c1[nH]c2ccccc2n1C1CCN(CCCC(c2ccc(F)cc2)c2ccc(F)cc2)CC1` [Pimozide], the IC50 in test [1] (Zaire ebolavirus, Vero) stood at 4.8 µM; in test [1] (setting [5]), 3.1 µM; in test [2] (setting [6]), 1.7 µM. Further, the results for the Emax in test [1] (setting [3]), in test [1] (setting [4]) and in test [2] (Zaire ebolavirus) were 68.5%, 96.8% and 91%, respectively.
Turning to `CC(=O)c1ccc2c(c1)N(CCCN1CCC(CCO)CC1)c1ccccc1S2` [Piperacetazine], the “Max Effect” value in test [1] amounted to 0.641. Moreover, in test [1], the “Max Effect Vero” value came to 0.962. The IC50 in test [1] (read-out: IC50) was 6.6 µM; in test [1] (read-out: IC50 (μM) Vero), 12 µM; in test [2] (read-out: IC50 (μM) HepG2), 3.3 µM. For the same compound, in test [2], the “Max Effect HepG2” value came to 0.954.
In test [1] (Zaire ebolavirus, Vero), `C/C=C(/C)C(=O)O[C@H]1C(C)=C2[C@H]([C@@H]1OC(=O)CCCCCCC)[C@@](C)(OC(C)=O)C[C@H](OC(=O)CCC)[C@@]1(O)[C@H]2OC(=O)[C@@]1(C)O` [Thapsigargin] registered an IC50 below 0.3 µM. Besides, in test [1] (setting [3]), the Emax stood at 70%.
In the same order, the values of `CCSc1ccc2c(c1)N(CCCN1CCN(C)CC1)c1ccccc1S2` [Thiethylperazine Maleate] are 4.4 µM and 83.2%.
For the compound `CSc1ccc2c(c1)N(CCC1CCCCN1C)c1ccccc1S2.Cl` (centres unmarked) [Thioridazine Hydrochloride], in test [1], the “Max Effect” value came to 0.915 and the “Max Effect Vero” value is 0.954. The IC50 in test [1] (read-out: IC50) was found to be 4.3 µM. In test [1] (read-out: IC50 (μM) Vero), the IC50 turned out to be 6.2 µM.
As to `C=C(NC(=O)C(=C)NC(=O)c1csc(C2=N[C@@H]3c4csc(n4)[C@H]4NC(=O)c5csc(n5)[C@H]([C@](C)(O)[C@@H](C)O)NC(=O)[C@H]5CSC(=N5)/C(=C/C)NC(=O)[C@H]([C@@H](C)O)NC(=O)c5csc(n5)[C@]3(CC2)NC(=O)[C@H](C)NC(=O)C(=C)NC(=O)[C@H](C)NC(=O)[C@H]([C@@H](C)CC)N[C@@H]2C=Cc3c([C@H](C)O)cc(nc3[C@H]2O)C(=O)O[C@@H]4C)n1)C(N)=O` [Thiostrepton], the Emax in test [1] (setting [3]) was found to be 45.4%.
Regarding `C#C[C@]1(O)CC[C@H]2[C@@H]3[C@H](C)CC4=C(CCC(=O)C4)[C@H]3CC[C@@]21C` [Tibolone], the IC50 in test [1] (Zaire ebolavirus, Vero) was 1.2 µM. Moreover, the Emax in test [1] (setting [3]) is 112%.
As to `Clc1ccc(C(Cn2ccnc2)OCc2ccsc2Cl)c(Cl)c1` (centres unmarked) [Tioconazole], the IC50 in test [1] (Zaire ebolavirus, Vero) turned out to be 8.5 µM. For the same compound, in test [1] (setting [3]), the Emax was found to be 72.9%.
With `O=C(O)Cc1cc(I)c(Oc2ccc(O)c(I)c2)c(I)c1` [Tiratricol], the Emax in test [1] (setting [3]) came to 47.8%.
For `CN(C)CCOc1ccc(/C(=C(/CCCl)c2ccccc2)c2ccccc2)cc1` [Toremifene], in test [1], 2.7 µM corresponded to half-maximal inhibition (IC50) and the “Max Effect” value is 0.461.
As to `CSc1nc2cc(Cl)c(Oc3cccc(Cl)c3Cl)cc2[nH]1` [Triclabendazole], the half-maximal inhibitory concentration (IC50) in test [1] (Zaire ebolavirus, Vero) worked out at 9.2 µM. Further, the Emax in test [1] (setting [3]) came out at 55.2%.
In the same order, the values of `CN1CCN(CCCN2c3ccccc3Sc3ccc(C(F)(F)F)cc32)CC1` [Trifluoperazine Hydrochloride] are 5 µM and 95.5%.
In turn, `CN(C)CCCN1c2ccccc2Sc2ccc(C(F)(F)F)cc21` [Triflupromazine Hydrochloride] came in with an IC50 in test [1] (Zaire ebolavirus, Vero) of 12.1 µM. For the same compound, the Emax in test [1] (setting [3]) was 54.1%.
`CC(C)[C@]12O[C@H]1[C@@H]1O[C@]13[C@]1(O[C@H]1C[C@H]1C4=C(CC[C@@]13C)C(=O)OC4)[C@@H]2O` [Triptolide] gave an IC50 in test [1] (Zaire ebolavirus, Vero) below 0.1 µM. Besides, in test [1] (setting [3]), the Emax turned out to be 85%.
In the same order, the values of `Fc1ccc(C(OCCN2CCN(CCCc3ccccc3)CC2)c2ccc(F)cc2)cc1` [Vanoxerine] are 5.8 µM and 56.4%.
For Acetophenazine Maleate, the “Max Effect” value in test [1] worked out at 0.478.
Turning to Antimycin A, the “Max Effect” value in test [1] is 0.850. Further, in test [1] (read-out: IC50), the IC50 was below 0.04 µM.
Beta Escin: the “Max Effect” value in test [1] came to 0.878.
For the compound Bromelain, the “Max Effect” value in test [1] is listed as 0.769. Also, the IC50 in test [1] (read-out: IC50) amounted to 4 µM.
As for Cetrimide, in test [1], the “Max Effect” value was determined as 0.692. Also, the IC50 in test [1] (read-out: IC50) stood at 5.6 µM.
For the compound Chondroitin Sulfate, the “Max Effect” value in test [1] worked out at 0.535. Moreover, the IC50 in test [1] (read-out: IC50) stood at 11.4 µM.
For the compound Gramicidin, the “Max Effect” value in test [1] is on record as 0.678.
With Guanethidine Monosulfate, in test [1], the “Max Effect” value stood at 0.793. The IC50 in test [1] (read-out: IC50) came to 8.7 µM.
In the same order, the values of Nonoxynol-9 are 0.535 and 8.7 µM.
Consider Sodium Vanadate, for which the IC50 in test [1] (read-out: IC50) was determined as 13 µM.
For Tunicamycin, in test [1], the “Max Effect” value amounted to 0.800. Further, the IC50 in test [1] (read-out: IC50) is below 0.28 µM.
